Results: US20240092761A1, “QUINAZOLINE COMPOUNDS AND METHODS OF USE” (IAMBIC THERAPEUTICS, INC., priority 2022, published 2024)
pIC50: −log10 of the molar value.

What was measured:
CDK4/Cyclin D1 = CDK4/Cyclin D1 (Homo sapiens (Human), UniProt P11802); assay: CDK4/Cyclin D1 CHEF Assay (AQT0258 peptide); type: biochemical; conditions: 200 uM ATP, read-out: CDK4/ CyclinD1 AQT IC50
Description: CDK4/Cyclin D1 CHEF Assay
The purpose of CDK4/Cyclin Dl assay is to evaluate the inhibition (% inhibition and IC50 values) of small molecule inhibitors by using a Chelation-Enhance Fluorescence (CHEF) assay. In a CHEF assay, phosphorylation of a peptide substrate results in proportional increase in fluorescence. CHEF kinase assay use peptide substrates containing a synthetic alpha-amino acid with a side chain bearing an 8-hydroxyquinoline derivative (sulfonamido-oxide, Sox). Upon phosphorylation of a nearby serine, threonine or tyrosine and in the presence of Mg(II), the spectral properties of the Sox residue are altered, emitting 485 nm wavelength light when excited with a 360 nm wavelength light source. CDK4/Cyclin D1 catalyzes the phosphoryl transfer to the SOX-labeled substrate peptide AQT0258 from Assayquant Technologies. Typical reaction solutions contained 2% DMSO (+/−inhibitor), 10 mM MgCl2, 1 mM DTT, 200 uM ATP (ATP Km=195.2 uM), 0.012% Brig-35, 10 uM AQT0258 peptide, 0.02% BSA, 1% Glycerol, 0.55 mM EGTA, 2.5 nM CDK4/Cyclin D1 in 54 mM HEPES buffer at pH 7.5. The reaction was initiated with the addition of substrate solution, following a 30-minute pre-incubation of enzyme and inhibitor at 22° C. in the reaction mix. Reactions were allowed to proceed for 3 hrs at 22° C., followed by fluorescence read of the reaction. The IC50 determinations were made from a plot of the fractional velocity as a function of inhibitor concentration fit to the 4 parameters IC50 equation.

CDK1/Cyclin B1 = CDK1/Cyclin B1 (Homo sapiens (Human), UniProt P06493); assay: CDK1/Cyclin B1 ADP-Glo Kinase Assay; type: biochemical; conditions: 80 uM ATP
CDK1/Cyclin B1, sequence (P06493 whole entry): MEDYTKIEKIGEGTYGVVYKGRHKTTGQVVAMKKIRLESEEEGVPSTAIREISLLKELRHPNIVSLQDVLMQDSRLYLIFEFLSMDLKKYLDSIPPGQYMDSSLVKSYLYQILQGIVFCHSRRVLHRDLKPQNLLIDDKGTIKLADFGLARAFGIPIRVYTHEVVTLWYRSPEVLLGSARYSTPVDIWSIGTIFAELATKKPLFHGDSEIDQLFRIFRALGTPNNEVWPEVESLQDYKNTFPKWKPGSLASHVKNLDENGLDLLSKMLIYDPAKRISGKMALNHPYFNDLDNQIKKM
CDK1/Cyclin B1, sequence (P14635 whole entry partner): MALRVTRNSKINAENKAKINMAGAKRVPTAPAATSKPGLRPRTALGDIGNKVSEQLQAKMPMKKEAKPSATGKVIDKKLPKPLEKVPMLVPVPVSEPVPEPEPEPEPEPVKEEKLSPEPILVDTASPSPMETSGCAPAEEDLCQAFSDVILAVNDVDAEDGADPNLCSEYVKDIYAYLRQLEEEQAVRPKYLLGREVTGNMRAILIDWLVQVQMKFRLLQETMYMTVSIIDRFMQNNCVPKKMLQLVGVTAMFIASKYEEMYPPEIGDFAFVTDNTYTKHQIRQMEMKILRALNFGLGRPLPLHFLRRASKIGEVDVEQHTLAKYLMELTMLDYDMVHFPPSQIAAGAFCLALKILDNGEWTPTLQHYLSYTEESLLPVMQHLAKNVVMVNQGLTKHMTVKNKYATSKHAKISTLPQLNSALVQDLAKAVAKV
Method: CDK1/Cyclin B1 ADP-Glo Kinase Assay
(§1) The purpose of CDK1/Cyclin B1 assay is to evaluate the inhibition (% inhibition and IC50 values) of small molecule inhibitors by using a Luminescent based ADP-Glo assay. CDK1/Cyclin B1 catalyzes the production of ADP from ATP. ADP-Glo assay monitors ADP producing biochemical reactions. ADP-Glo is performed in 2 steps upon completion of kinase reaction: a combined termination of kinase reaction and depletion of remaining ATP in the first step, and conversion of generated ADP to ATP and the newly produced ATP to light output using luciferase/luciferin reaction in the second step. The luminescent signal generated is proportional to the ADP concentration produced and is correlated with the kinase activity. CDK1/Cyclin B1 was purchased from Carna (Cat 04-102). Typical reaction solutions (10 uL final reaction volume) contained 2% DMSO (f inhibitor), 10 mM MgCl2, 1 mM EGTA, 0.05% BSA, 2 mM DTT, 80 uM ATP (ATP Km=78.6 uM), 0.01% Brig-35, 0.75 uM substrate, and 4.917 nM CDK1/Cyclin Bl enzyme complex in 50 mM HEPES buffer at pH 7.5. The assay was initiated with the addition of ATP-containing substrate solution, following a 30-minute pre-incubation of enzyme and inhibitor at room temperature in the reaction mixture. The reaction was stopped after 90 minutes at room temperature by the addition of 10 uL of ADP-GLO Reagent. After a 90 minute incubation, 20 uL of Kinase Detection Reagent was added. Samples were incubated for 40 minutes, after which plate well luminescence was measured on a Envision microplate reader. The IC50 determinations were made from a plot of the fractional velocity as a function of inhibitor concentration fit to the 4 parameters IC50 equation.

OVCAR-3 cells = assay: Cell Growth Inhibition, OVCAR-3 (CellTiterGlo, 6 days); type: cell-based; conditions: OVCAR-3, 6-day treatment, CellTiterGlo 2.0
Description: (§2) MCF-7 and OVCAR-3 cells were used to evaluate the anti-proliferation activity of the CDK inhibitors. MCF-7 (ATCC, HTB-22) cells are epithelial cells from a patient with ER+ metastatic adenocarcinoma. OVCAR-3 (ATCC, HTB-161) cells were derived from malignant ascites of a patient with ovarian cancer and are known to have CCNE1 amplification. Both cell lines were maintained in RPMI media supplemented with 10% fetal bovine serum. For cell growth inhibition assay, CDK inhibitors in DMSO solution were dispensed with either Echo 655 (Beckman Coulter) or Tecan D300e (HP) into 384-well plates (Corning #3765) and the 384-well plates were UV-sterilized prior to the assay. The inhibitors were typically tested in the 10-10,000 nM concentration range with half-log serial dilutions. MCF-7 or OVCAR-3 (500 cells/30 μL/well) were added to each well using Multidrop Combi (ThermoFisher) using standard cassettes. The assay plates with cells were cultured at 37° C., 5% CO2 for 6 days. At the end of the 6-day treatment, 30 μL of CellTiterGlo 2.0 (Promega) was added to each well and the luminescent signal was read using CLARIOstar plus (BMG). The percentage of cell growth inhibition (% CGI) was calculated using the following formula % CGI=100−100×luminescencesample/luminescencecontrol. The half maximal inhibitory concentration (IC50) was determined by nonlinear curve fitting (four parameters, variable slope).

MCF-7 cells = assay: Cell Growth Inhibition, MCF-7 (CellTiterGlo, 6 days); type: cell-based; conditions: MCF-7, 6-day treatment, CellTiterGlo 2.0
Description: as §2

[1] = molecular target: CDK2/Cyclin E1 full length (Homo sapiens (Human), UniProt P24941); assay: CDK2/Cyclin E1 Full Length ADP-Glo Kinase Assay; type: biochemical; conditions: 20 uM ATP, read-out: CDK2/ CyclinE1 IC50
Method: CDK2/Cyclin E1 Full Length ADP-Glo Kinase Assay
The purpose of CDK2/Cyclin E1 assay is to evaluate the inhibition (% inhibition and IC50 values) of small molecule inhibitors by using a Luminescent based ADP-Glo assay. CDK2/Cyclin E1 full length catalyzes the production of ADP from ATP. ADP-Glo assay monitors ADP producing biochemical reactions. ADP-Glo is performed in 2 steps upon completion of kinase reaction: a combined termination of kinase reaction and depletion of remaining ATP in the first step, and conversion of generated ADP to ATP and the newly produced ATP to light output using luciferase/luciferin reaction in the second step. The luminescent signal generated is proportional to the ADP concentration produced and is correlated with the kinase activity. CDK2/Cyclin E1 was purchased from Eurofins (Cat 14-475M). Typical reaction solutions (10 uL final reaction volume) contained 2% DMSO (f inhibitor), 10 mM MgCI2, 1 mM EGTA, 0.05% BSA, 2 mM DTT, 20 uM ATP (ATP Km=64.78 uM), 0.01% Brig-35, 0.75 uM substrate, and 0.328 nM wild-type full length CDK2/Cyclin E1 enzyme complex in 50 mM HEPES buffer at pH 7.5. The assay was initiated with the addition of ATP-containing substrate solution, following a 30-minute pre-incubation of enzyme and inhibitor at room temperature in the reaction mixture. The reaction was stopped after 90 minutes at room temperature by the addition of 10 uL of ADP-GLO Reagent. After a 90 minute incubation, 20 uL of Kinase Detection Reagent was added. Samples were incubated for 40 minutes, after which plate well luminescence was measured on a Envision microplate reader. The IC50 determinations were made from a plot of the fractional velocity as a function of inhibitor concentration fit to the 4 parameters IC50 equation.

CDK6/Cyclin D3 = CDK6/Cyclin D3 (Homo sapiens (Human), UniProt Q00534); assay: CDK6/Cyclin D3 ADP-Glo Kinase Assay; type: biochemical; conditions: 100 uM ATP, read-out: CDK6/ CyclinD3 IC50
CDK6/Cyclin D3, sequence (Q00534 whole entry): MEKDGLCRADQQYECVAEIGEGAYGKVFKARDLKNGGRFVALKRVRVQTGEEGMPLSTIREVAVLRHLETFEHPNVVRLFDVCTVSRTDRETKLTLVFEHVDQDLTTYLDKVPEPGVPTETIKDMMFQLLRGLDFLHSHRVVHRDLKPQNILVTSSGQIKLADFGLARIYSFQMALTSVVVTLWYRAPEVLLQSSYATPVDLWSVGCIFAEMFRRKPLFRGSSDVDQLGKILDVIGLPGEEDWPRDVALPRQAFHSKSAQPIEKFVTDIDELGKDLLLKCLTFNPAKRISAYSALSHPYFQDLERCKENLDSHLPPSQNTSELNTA
CDK6/Cyclin D3, sequence (P30281 whole entry partner): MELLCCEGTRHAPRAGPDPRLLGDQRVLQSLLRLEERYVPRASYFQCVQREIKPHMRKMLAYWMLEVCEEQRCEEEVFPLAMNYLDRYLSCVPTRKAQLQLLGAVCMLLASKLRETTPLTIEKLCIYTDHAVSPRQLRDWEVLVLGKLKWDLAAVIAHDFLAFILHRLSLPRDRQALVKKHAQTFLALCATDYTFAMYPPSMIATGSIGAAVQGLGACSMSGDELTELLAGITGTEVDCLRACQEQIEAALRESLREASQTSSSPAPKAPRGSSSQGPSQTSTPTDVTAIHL
Method: CDK6/Cyclin D3 ADP-Glo Kinase Assay
as §1, with “of the CDK6/Cyclin D3” for “of CDK1/Cyclin B1”, “values) in the presence” for “values)”, “assay. CDK6/Cyclin D3” for “assay. CDK1/Cyclin B1”, “activity. CDK6/Cyclin D3” for “activity. CDK1/Cyclin B1”, “from Carna. […]” for “from Carna (Cat 04-102). Typical reaction solutions (10 uL final reaction volume) contained 2% DMSO (f inhibitor), 10 mM MgCl2, 1 mM EGTA, 0.05% BSA, 2 mM DTT, 80 uM ATP (ATP Km=78.6 uM), 0.01% Brig-35, 0.75 uM substrate, and 4.917 nM CDK1/Cyclin Bl enzyme complex in 50 mM HEPES buffer at pH 7.5.”, “a 90-minute” for “a 90 minute”

CDK4/Cyclin D1, sequence (P11802 whole entry): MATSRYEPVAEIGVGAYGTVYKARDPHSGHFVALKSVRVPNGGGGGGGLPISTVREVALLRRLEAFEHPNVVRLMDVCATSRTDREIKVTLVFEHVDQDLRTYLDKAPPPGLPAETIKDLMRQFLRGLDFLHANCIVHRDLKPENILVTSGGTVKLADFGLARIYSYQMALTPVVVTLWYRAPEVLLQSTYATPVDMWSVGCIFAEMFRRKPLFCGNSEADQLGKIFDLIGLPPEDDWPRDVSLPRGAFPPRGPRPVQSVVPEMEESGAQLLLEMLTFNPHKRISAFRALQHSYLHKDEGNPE
CDK4/Cyclin D1, sequence (P24385 whole entry partner): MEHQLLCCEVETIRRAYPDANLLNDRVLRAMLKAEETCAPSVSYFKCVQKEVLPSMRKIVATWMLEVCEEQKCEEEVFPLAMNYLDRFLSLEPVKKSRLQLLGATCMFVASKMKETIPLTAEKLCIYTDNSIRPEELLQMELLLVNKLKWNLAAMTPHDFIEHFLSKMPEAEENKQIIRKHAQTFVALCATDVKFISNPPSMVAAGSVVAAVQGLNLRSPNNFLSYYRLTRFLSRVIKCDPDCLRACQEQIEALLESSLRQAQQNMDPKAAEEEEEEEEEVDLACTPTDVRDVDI

Compound	pIC50 (CDK4/Cyclin D1)	pIC50 (CDK1/Cyclin B1)	pIC50 (OVCAR-3 cells; Homo sapiens, 144 h)	pIC50 (MCF-7 cells; Homo sapiens, MCF7, 144 h)	pIC50 [1]	pIC50 (CDK6/Cyclin D3)	pIC50 (OVCAR-3 cells)	pIC50 (MCF-7 cells)
CS(=O)(=O)N1CCC(Nc2ncc3cc(C(F)F)cc(C4CC5(CCN(CC(F)F)C5)C4)c3n2)CC1 (stereo not drawn) [Example 100, 8-(6-(2,2-difluoroethyl)-6-azaspiro[3.4]octan-2-yl)-6-(difluoromethyl)-N-(1-(methylsulfonyl)piperidin-4-yl)quinazolin-2-amine]	> 6.70	> 6.70	5.70 to 6.30	6.30 to 6.70	> 6.70	> 6.70		
CN1Cc2ccc(Nc3ncc4cc(C(F)F)cc(N5CC6(C5)CN(S(C)(=O)=O)C6)c4n3)cc2C1 [Example 58, 6-(difluoromethyl)-N-(2-methylisoindolin-5-yl)-8-(6-(methylsulfonyl)-2,6-diazaspiro[3.3]heptan-2-yl)quinazolin-2-amine]	> 6.70	5.70 to 6.30	5.70 to 6.30	5.70 to 6.30	> 6.70	> 6.70		
CN1CC2(CCN(c3cc(C(F)F)cc4cnc(Nc5ccc6c(c5)CN(S(C)(=O)=O)C6)nc34)C2)C1 [Example 73, 6-(difluoromethyl)-8-(2-methyl-2,6-diazaspiro[3.4]octan-6-yl)-(methylsulfonyl)N-(2-isoindolin-5-yl)quinazolin-2amine]	> 6.70	> 6.70			> 6.70	> 6.70	5.70 to 6.30	6.30 to 6.70
O=S(=O)(C1CC1)N1CCC(Nc2ncc3cc(C(F)F)cc(N4CC5(C4)CN(C4CC4)C5)c3n2)CC1 [Example 78, 8-(6-cyclopropyl-2,6-diazaspiro[3.3]heptan-2-yl)-N-(1-(cyclopropylsulfonyl)piperidin-4-yl)-6-(difluoromethyl)quinazolin-2-amine]	> 6.70	6.30 to 6.70	< 5.70	5.70 to 6.30	> 6.70	> 6.70		
CC(C)(F)CN1CCC2(CC(c3cc(C(F)F)cc4cnc(NC5CCN(S(C)(=O)=O)CC5)nc34)C2)C1 (stereo not drawn) [Example 103, 6-(difluoromethyl)-8-(6-(2-fluoro-2-methylpropyl)-6-azaspiro[3.4]octan-2-yl)-N-(1-(methylsulfonyl)piperidin-4-yl)quinazolin-2-amine]	> 6.70	> 6.70	5.70 to 6.30	6.30 to 6.70	> 6.70	> 6.70		
CS(=O)(=O)N1CCC(Nc2ncc3cc(C(F)F)cc(N4CC5(CCNCC5(F)F)C4)c3n2)CC1 [Example 94, 8-(5,5-difluoro-2,7-diazaspiro[3.5]nonan-2-yl)-6-(difluoromethyl)-N-(1-(methylsulfonyl)piperidin-4-yl)quinazolin-2-amine]	> 6.70	> 6.70	5.70 to 6.30	5.70 to 6.30	> 6.70	> 6.70		
CS(=O)(=O)N1CCC(Nc2ncc3cc(C(F)F)cc(C4CC5(CCN(CC(F)(F)CO)C5)C4)c3n2)CC1 (stereo not drawn) [Example 106, 3-(2-(6-(difluoromethyl)-2-((1-(methylsulfonyl)piperidin-4-yl)amino)quinazolin-8-yl)-6-azaspiro[3.4]octan-6-yl)-2,2-difluoropropan-1-ol]	> 6.70	> 6.70	5.70 to 6.30	5.70 to 6.30	> 6.70	> 6.70		
O[C@@H]1COCC[C@H]1Nc1ncc2cc(C(F)F)cc(N3CC(F)(F)C4(CNC4)C3)c2n1 (racemic) [Example 117, (3S,4R)-4-((8-(8,8-difluoro-2,6-diazaspiro[3.4]octan-6-yl)-6-(difluoromethyl)quinazolin-2-yl)amino)tetrahydro-2H-pyran-3-ol]	> 6.70	< 5.70	< 5.70	5.70 to 6.30	> 6.70	> 6.70		
COCCN1CC2(C1)CN(c1cc(C(F)F)cc3cnc(NC4CCN(S(=O)(=O)C5CC5)CC4)nc13)C2 [Example 76, N-(1-(cyclopropylsulfonyl)piperidin-4-yl)-6-(difluoromethyl)-8-(6-(2-methoxyethyl)-2,6-diazaspiro[3.3]heptan-2-yl)quinazolin-2-amine]	> 6.70	5.70 to 6.30	5.70 to 6.30	5.70 to 6.30	> 6.70	> 6.70		
